# Where two headings read alike, the source gives them in different places.
# Key:
# [1] = tested on: TNFα secretion from LPS stimulated white blood cells from human buffy coat; assay: TNFα secretion assay, LPS stimulation; details: Homo sapiens, read-out: percent inhibition of TNFα secretion, LPS; for inhibition at 0.008 µM: Prednisolone 0.008 μM; for inhibition at 0.5 µM: Prednisolone 0.5 μM; for inhibition at 1 µM: Prednisolone 1 μM
# Description: (§1) Various concentrations of each test compound were added at the time of stimulation. […] After the plate was washed with 0.1% Tween 20/PBS, an HRP-luminescent substrate was added to each well and light intensity measured using a LJL Analyst plate luminometer.
# [2] = tested on: TNFα secretion from PMA/ionomycin stimulated white blood cells from human buffy coat; assay: TNFα secretion assay, PMA/ionomycin stimulation
# Description: as §1
# [3] = Amoxapine μM r5-r13: 0,0.25,0.5,1,2,4,8,16,32
# [4] = Clomipramine μM r5-r13: 0,0.45,0.89,1.8,3.6,7.1,14,28,57
# [5] = Desipramine μM r5-r13: 0,0.5,1,2,4,8,16,32,64
# [6] = Fluoxetine μM r5-r13: 0,0.23,0.45,0.9,1.8,3.6,7.2,14,29
# [7] = Loxapine μM r5-r13: 0,0.35,0.7,1.4,2.8,5.6,11,22,45
# [8] = Norclozapine μM r5-r13: 0,0.21,0.41,0.83,1.7,3.3,6.6,13,27
# [9] = Nortriptyline μM r5-r13: 0,0.52,1,2.1,4.2,8.3,17,33,67
compound,measurement,setting,value
"C[C@]12C=CC(=O)C=C1CC[C@@H]1[C@@H]2[C@@H](O)C[C@@]2(C)[C@H]1CC[C@]2(O)C(=O)CO [Prednisolone, prednisolone]",inhibition at 0.008 µM,[1]; [3],3.67%
same,inhibition at 0.008 µM,[1]; [4],2.55%
same,inhibition at 0.008 µM,[1]; [5],4.87%
same,inhibition at 0.008 µM,[1]; [6],1.18%
same,inhibition at 0.008 µM,[1]; [7],4.44%
same,inhibition at 0.008 µM,[1]; [8],18%
same,inhibition at 0.008 µM,[1]; [9],0.348%
same,inhibition at 0.5 µM,[1]; [3],59.1%
same,inhibition at 0.5 µM,[1]; [4],64.8%
same,inhibition at 0.5 µM,[1]; [5],57.6%
same,inhibition at 0.5 µM,[1]; [6],63.9%
same,inhibition at 0.5 µM,[1]; [7],68.8%
same,inhibition at 0.5 µM,[1]; [8],79%
same,inhibition at 0.5 µM,[1]; [9],51.9%
same,inhibition at 1 µM,[1]; [3],66.2%
same,inhibition at 1 µM,[1]; [4],66.9%
same,inhibition at 1 µM,[1]; [5],59.1%
same,inhibition at 1 µM,[1]; [6],71%
same,inhibition at 1 µM,[1]; [7],68.7%
same,inhibition at 1 µM,[1]; [8],83%
same,inhibition at 1 µM,[1]; [9],53.4%
same,inhibition at 0.01 µM,"[2]; read-out: inhibition of TNFα secretion, Prednisolone 10 nM, Desipramine nM: 0, 50, 200, 799, 3197, 13000",-0.66%
same,inhibition at 0.01 µM,"[2]; read-out: inhibition of TNFα secretion, Prednisolone 10 nM, Imipramine nM: 0, 99, 394, 1578, 6311, 25000",0.037%
same,inhibition at 0.01 µM,"[2]; read-out: inhibition of TNFα secretion, Prednisolone 10 nM, Nortriptyline nM: 0, 52, 208, 834, 3336, 13000",4.27%
same,inhibition at 0.01 µM,"[2]; read-out: inhibition of TNFα secretion, Prednisolone 10 nM, Protriptyline nM: 0, 52, 208, 834, 3336, 13000",0.0342%
same,inhibition at […],"[2]; read-out: inhibition of TNFα secretion, Prednisolone 42 nM, Desipramine nM: 0, 50, 200, 799, 3197, 13000",3.62%
same,inhibition at […],"[2]; read-out: inhibition of TNFα secretion, Prednisolone 42 nM, Imipramine nM: 0, 99, 394, 1578, 6311, 25000",5.58%
same,inhibition at […],"[2]; read-out: inhibition of TNFα secretion, Prednisolone 42 nM, Nortriptyline nM: 0, 52, 208, 834, 3336, 13000",7.41%
same,inhibition at 2.656 µM,"[2]; read-out: inhibition of TNFα secretion, Prednisolone 2656 nM, Desipramine nM: 0, 50, 200, 799, 3197, 13000",38.8%
same,inhibition at 2.656 µM,"[2]; read-out: inhibition of TNFα secretion, Prednisolone 2656 nM, Imipramine nM: 0, 99, 394, 1578, 6311, 25000",40.5%
same,inhibition at 2.656 µM,"[2]; read-out: inhibition of TNFα secretion, Prednisolone 2656 nM, Nortriptyline nM: 0, 52, 208, 834, 3336, 13000",38.3%
same,inhibition at 2.656 µM,"[2]; read-out: inhibition of TNFα secretion, Prednisolone 2656 nM, Protriptyline nM: 0, 52, 208, 834, 3336, 13000",45.2%
same,inhibition at 0.008 µM,"[2]; read-out: percent inhibition of TNFα secretion, PMA/ionomycin, Prednisolone 0.008 μM, Amoxapine μM r5-r13: 0,0.25,0.5,1,2,4,8,16,32",-2.11%
same,inhibition at 0.008 µM,"[2]; read-out: percent inhibition of TNFα secretion, PMA/ionomycin, Prednisolone 0.008 μM, Norclozapine μM r5-r13: 0,0.21,0.41,0.83,1.7,3.3,6.6,13,27",17%
same,inhibition at 0.008 µM,"[2]; read-out: percent inhibition of TNFα secretion, PMA/ionomycin, Prednisolone 0.008 μM, Nortriptyline μM r5-r13: 0,0.52,1,2.1,4.2,8.3,17,33,67",9.54%
same,inhibition at 0.5 µM,"[2]; read-out: percent inhibition of TNFα secretion, PMA/ionomycin, Prednisolone 0.5 μM, Amoxapine μM r5-r13: 0,0.25,0.5,1,2,4,8,16,32",25%
same,inhibition at 0.5 µM,"[2]; read-out: percent inhibition of TNFα secretion, PMA/ionomycin, Prednisolone 0.5 μM, Norclozapine μM r5-r13: 0,0.21,0.41,0.83,1.7,3.3,6.6,13,27",44%
same,inhibition at 0.5 µM,"[2]; read-out: percent inhibition of TNFα secretion, PMA/ionomycin, Prednisolone 0.5 μM, Nortriptyline μM r5-r13: 0,0.52,1,2.1,4.2,8.3,17,33,67",29.2%
same,inhibition at 1 µM,"[2]; read-out: percent inhibition of TNFα secretion, PMA/ionomycin, Prednisolone 1 μM, Amoxapine μM r5-r13: 0,0.25,0.5,1,2,4,8,16,32",29.5%
same,inhibition at 1 µM,"[2]; read-out: percent inhibition of TNFα secretion, PMA/ionomycin, Prednisolone 1 μM, Nortriptyline μM r5-r13: 0,0.52,1,2.1,4.2,8.3,17,33,67",38.5%
same,inhibition at 0.008 µM,"[2]; read-out: percent inhibition of TNFα secretion, Prednisolone 0.008 μM, Clomipramine μM 0, 0.45, 0.89, 1.8, 3.6, 7.1, 14, 28, 57",7.57%
same,inhibition at 0.008 µM,"[2]; read-out: percent inhibition of TNFα secretion, Prednisolone 0.008 μM, Desipramine μM 0, 0.5, 1, 2, 4, 8, 16, 32, 64",3.11%
same,inhibition at 0.008 µM,"[2]; read-out: percent inhibition of TNFα secretion, Prednisolone 0.008 μM, Fluoxetine μM by grid row: r5 0, r6 0.23, r7 0.45, r8 0.9, r9 1.8, r10 3.6, r11 7.2, r12 14, r13 29",6.63%
same,inhibition at 0.008 µM,"[2]; read-out: percent inhibition of TNFα secretion, Prednisolone 0.008 μM, Loxapine μM 0, 0.35, 0.7, 1.4, 2.8, 5.6, 11, 22, 45",3.36%
same,inhibition at 0.01 µM,"[2]; read-out: percent inhibition of TNFα secretion, Prednisolone 10 nM, Amitriptyline nM: 0, 50, 199, 796, 3186, 13000",-1.26%
same,inhibition at 0.01 µM,"[2]; read-out: percent inhibition of TNFα secretion, Prednisolone 10 nM, Amoxapine nM: 0, 12, 50, 199, 797, 3187",1.28%
same,inhibition at 0.01 µM,"[2]; read-out: percent inhibition of TNFα secretion, Prednisolone 10 nM, Clomipramine nM: 0, 45, 178, 712, 2848, 11000",0.29%
same,inhibition at […],"[2]; read-out: percent inhibition of TNFα secretion, Prednisolone 42 nM, Amitriptyline nM: 0, 50, 199, 796, 3186, 13000",7.27%
same,inhibition at […],"[2]; read-out: percent inhibition of TNFα secretion, Prednisolone 42 nM, Amoxapine nM: 0, 12, 50, 199, 797, 3187",7.71%
same,inhibition at […],"[2]; read-out: percent inhibition of TNFα secretion, Prednisolone 42 nM, Clomipramine nM: 0, 45, 178, 712, 2848, 11000",6.83%
same,inhibition at 0.5 µM,"[2]; read-out: percent inhibition of TNFα secretion, Prednisolone 0.5 μM, Clomipramine μM 0, 0.45, 0.89, 1.8, 3.6, 7.1, 14, 28, 57",33.4%
same,inhibition at 0.5 µM,"[2]; read-out: percent inhibition of TNFα secretion, Prednisolone 0.5 μM, Desipramine μM 0, 0.5, 1, 2, 4, 8, 16, 32, 64",32.6%
same,inhibition at 0.5 µM,"[2]; read-out: percent inhibition of TNFα secretion, Prednisolone 0.5 μM, Fluoxetine μM by grid row: r5 0, r6 0.23, r7 0.45, r8 0.9, r9 1.8, r10 3.6, r11 7.2, r12 14, r13 29",39.3%
same,inhibition at 0.5 µM,"[2]; read-out: percent inhibition of TNFα secretion, Prednisolone 0.5 μM, Loxapine μM 0, 0.35, 0.7, 1.4, 2.8, 5.6, 11, 22, 45",31%
same,inhibition at 1 µM,"[2]; read-out: percent inhibition of TNFα secretion, Prednisolone 1 μM, Clomipramine μM 0, 0.45, 0.89, 1.8, 3.6, 7.1, 14, 28, 57",37.5%
same,inhibition at 1 µM,"[2]; read-out: percent inhibition of TNFα secretion, Prednisolone 1 μM, Desipramine μM 0, 0.5, 1, 2, 4, 8, 16, 32, 64",35.2%
same,inhibition at 1 µM,"[2]; read-out: percent inhibition of TNFα secretion, Prednisolone 1 μM, Fluoxetine μM by grid row: r5 0, r6 0.23, r7 0.45, r8 0.9, r9 1.8, r10 3.6, r11 7.2, r12 14, r13 29",30.6%
same,inhibition at 1 µM,"[2]; read-out: percent inhibition of TNFα secretion, Prednisolone 1 μM, Loxapine μM 0, 0.35, 0.7, 1.4, 2.8, 5.6, 11, 22, 45",34.8%
same,inhibition at 2.656 µM,"[2]; read-out: percent inhibition of TNFα secretion, Prednisolone 2656 nM, Amitriptyline nM: 0, 50, 199, 796, 3186, 13000",41.6%
same,inhibition at 2.656 µM,"[2]; read-out: percent inhibition of TNFα secretion, Prednisolone 2656 nM, Amoxapine nM: 0, 12, 50, 199, 797, 3187",39%
same,inhibition at 2.656 µM,"[2]; read-out: percent inhibition of TNFα secretion, Prednisolone 2656 nM, Clomipramine nM: 0, 45, 178, 712, 2848, 11000",42.1%

# — patent US20090075951A1, “Methods and Reagents for the Treatment of Inflammatory Disorders” (CombinatoRx, Inc., priority 2003, published 2009)
